Measured values published in the supplement of paper PMC10307832.

Tests used:
Test in all cases: relative viability (nuclei count vs DMSO), 5 days (fraction); higher = more cells survive
[1] = system: NCI-H522
Method in brief: (§1)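 For relative viability, nuclei counts in treated wells were divided by those in vehicle wells. Lung cancer cell lines had been pin-tool dosed in 1536-well plates the day after seeding and cultured for 5 days, then fixed and stained in one step (final 0.05% Triton X-100, 1% formaldehyde, 1 ug/ml Hoechst) and imaged at 4×. Doses were one drug alone or a fixed anchor-drug dose plus five library-drug doses (not always all listed) in √10 steps, and values are duplicate-plate medians.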

[2] = system: NCI-H2342
Method in brief: as §1

[3] = system: SW 900
Method in brief: as §1

[4] = system: NCI-H1648
Method in brief: as §1

Structure (SMILES)	relative viability ([1]; first compound 5 µM)	relative viability ([1]; first compound 15.81 µM)	relative viability ([1]; first compound 50 µM)	relative viability ([1]; first compound 158.11 µM)	relative viability ([1]; first compound 500 µM)	relative viability ([2]; first compound 5 µM)	relative viability ([2]; first compound 15.81 µM)	relative viability ([2]; first compound 50 µM)	relative viability ([2]; first compound 158.11 µM)	relative viability ([2]; first compound 500 µM)	relative viability ([3]; first compound 5 µM)	relative viability ([3]; first compound 50 µM)	relative viability ([3]; first compound 158.11 µM)	relative viability ([3]; first compound 500 µM)	relative viability ([4]; first compound 5 µM)	relative viability ([4]; first compound 15.81 µM)	relative viability ([4]; first compound 50 µM)	relative viability ([4]; first compound 158.11 µM)	relative viability ([4]; first compound 500 µM)	relative viability ([1]; first compound 0.08 µM)	relative viability ([1]; first compound 0.253 µM)	relative viability ([1]; first compound 0.8 µM)	relative viability ([1]; first compound 2.53 µM)	relative viability ([2]; first compound 0.08 µM)	relative viability ([2]; first compound 0.253 µM)	relative viability ([2]; first compound 0.8 µM)	relative viability ([2]; first compound 2.53 µM)	relative viability ([3]; first compound 0.08 µM)	relative viability ([3]; first compound 0.253 µM)	relative viability ([3]; first compound 0.8 µM)	relative viability ([3]; first compound 2.53 µM)	relative viability ([4]; first compound 0.08 µM)	relative viability ([4]; first compound 0.253 µM)	relative viability ([4]; first compound 0.8 µM)	relative viability ([4]; first compound 2.53 µM)
O=C(O)CCCCC(CCSCc1ccccc1)SCc1ccccc1 (stereo not given) [CPI-613] + CC(=O)c1c(C)c2cnc(Nc3ccc(N4CCNCC4)cn3)nc2n(C2CCCC2)c1=O [Palbociclib] (partner 0.5 µM)	1.03	1.13	1.08	0.708	0.301	0.497	0.536	0.492	0.52	0.588	0.57	0.557	0.208	0.0276	0.285	0.302	0.299	0.192	0.128																
Cc1cnc(-c2cnc(NCCNc3ccc(C#N)cn3)nc2-c2ccc(Cl)cc2Cl)[nH]1 + CC(=O)Nc1cccc(-n2c(=O)n(C3CC3)c(=O)c3c(Nc4ccc(I)cc4F)n(C)c(=O)c(C)c32)c1 [Trametinib] (partner 0.02 µM)																				0.909	0.719	0.799	0.722	0.923	0.653	0.801	0.697	0.905	0.629	0.772	0.765	0.5	0.381	0.476	0.456
O=C(O)CCCCC(CCSCc1ccccc1)SCc1ccccc1 (stereo not given) [CPI-613] + CC(=O)Nc1cccc(-n2c(=O)n(C3CC3)c(=O)c3c(Nc4ccc(I)cc4F)n(C)c(=O)c(C)c32)c1 [Trametinib] (partner 0.02 µM)	0.707	0.739	0.751	0.651	0.284	0.747	0.888	0.977	0.786	0.955	0.701	0.706	0.359	0.0323	0.454	0.376	0.533	0.218	0.14																
Cc1cnc(-c2cnc(NCCNc3ccc(C#N)cn3)nc2-c2ccc(Cl)cc2Cl)[nH]1 + CC(=O)c1c(C)c2cnc(Nc3ccc(N4CCNCC4)cn3)nc2n(C2CCCC2)c1=O [Palbociclib] (partner 0.5 µM)																				1.15	0.927	0.974	0.862	0.522	0.516	0.557	0.463	0.565	0.513	0.528	0.515	0.267	0.243	0.265	0.265
